Laboratory results published in patent US20120196019A1, “STEVIA SWEETENER WITH A SURFACTANT” (priority 2011, published 2012).
Like-named read-outs stand apart in the source and are kept apart here.

Tests used:
[1] = Saturation of Reb A aqueous solution (Example 3); format: physicochemical; conditions: water
Method: Three concentrations of Reb A aqueous solutions were prepared: 500 ppm, 0.8% and 2.0%.
The 0.8% (by weight) is saturated.
The 2.0% (by weight) is over-saturated. After preparation, Reb A will continue to precipitate slowly and finally result in a 0.8% solution.

[2] = cited from earlier work; for taste in sensory tests: 100% purity
[3] = DLS size determination of 500 ppm RA solutions with gum Arabic (Example 5, FIGS. 7-9); format: physicochemical; conditions: conclusion of Example 5
Method: This example was for size determination.
The solutions noted below were filtered with a 0.45 μm membrane.
Measurements were obtained by DLS after the solution was filtered and allowed to equilibrate for six hours.
According to FIGS. 7 through 9, it was determined that: […]

concentration of the saturated aqueous solution [1]: 0.8 % (by weight)
size of micelles that the molecules tend to form in solution [3]: above 1000 nm
stability of the solution (aggregation) [3]: unstable
Structure (SMILES): C=C1C[C@@]23CC[C@H]4[C@@](C)(CCC[C@@]4(C)C(=O)O[C@@H]4O[C@H](CO)[C@@H](O)[C@H](O)[C@H]4O)[C@@H]2CC[C@]1(O[C@@H]1O[C@H](CO)[C@@H](O)[C@H](O[C@@H]2O[C@H](CO)[C@@H](O)[C@H](O)[C@H]2O)[C@H]1O[C@@H]1O[C@H](CO)[C@@H](O)[C@H](O)[C@H]1O)C3 [Reb A, Rebaudioside A]
taste in sensory tests ([2]; 200 ppm aqueous solution): cannot bring a perfect taste close to sugar
taste in sensory tests ([2]; higher concentrations, for example 500 ppm): bitterness and aftertaste issues appear strongly
taste quality (increased sweetness and decreased bitterness) ([2]; Phytochemistry 68, 2007, 1855-1863): better than stevioside
